Values of other authors in patent US10694749B2, “Insecticide formulation” (Wellmark International, priority 2016, dated 2020).

Test system: Mosquito Larvae
Details: after ingestion

Bacillus thuringiensis israelensis [BTI]
time to death of the first larvae after ingesting the bacteria: 15 to 20 min
